Two compounds from paper PMC10054553, “Development of the First ^18F-Labeled Radiohybrid-Based Minigastrin Derivative with High Target Affinity and Tumor Accumulation by Substitution of the Chelating Moiety” (Pharmaceutics, 2023) can be followed below.

The assay deals with T1, CCK-2R (Rattus norvegicus, UniProt P30553).
T1 construct: CCK-2R-expressing rat pancreatic cancer cells AR42J; host or cells: AR42J (rat pancreatic cancer cells)
T1 sequence (P30553 1-452): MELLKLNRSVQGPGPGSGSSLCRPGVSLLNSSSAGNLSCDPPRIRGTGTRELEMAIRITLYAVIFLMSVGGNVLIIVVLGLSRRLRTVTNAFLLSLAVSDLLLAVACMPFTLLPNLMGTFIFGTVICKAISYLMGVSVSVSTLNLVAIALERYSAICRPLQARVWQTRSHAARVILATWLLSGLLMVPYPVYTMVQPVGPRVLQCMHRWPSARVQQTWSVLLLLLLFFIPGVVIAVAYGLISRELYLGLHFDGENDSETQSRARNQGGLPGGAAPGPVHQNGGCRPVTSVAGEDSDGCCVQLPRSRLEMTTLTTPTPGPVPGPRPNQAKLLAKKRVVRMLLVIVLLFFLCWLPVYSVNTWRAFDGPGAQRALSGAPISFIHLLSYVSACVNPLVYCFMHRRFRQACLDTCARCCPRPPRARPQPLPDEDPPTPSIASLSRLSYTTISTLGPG
Put plainly: CCK-2R-mediated internalization on AR42J cells. It is filed as cell-based. The conditions noted are these: for Internalization Values (%F11N) 6 h: relative to the reference DOTA-PP-F11N; for Internalization Values (%) 1 h / Internalization Values (%) 2 h / Internalization Values (%) 4 h / Internalization Values (%) 6 h: % of applied activity, 37 °C, 0.25 pmol/well, AR42J cells. As to the method: Figure 3 (a) CCK-2R-mediated internalization (0.25 pmol/well) measured on AR42J cells as percent (%) of applied activity (incubation at 37 °C for 1, 2, 4 and 6 h, RPMI 1640, 5 mm L-Gln, 5 mL non-essential amino acids (100×), 10% FCS + 5% BSA (v/v), 3.0 × 10^5 cells/mL/well). (b) CCK-2R-mediated internalization of [^177Lu]Lu-DOTA-rhCCK-16 (green), [^177Lu]Lu-(R)-DOTAGA-rhCCK-16 (orange), [^177Lu]Lu-DOTA-rhCCK-18 (red) and […] after incubation at 37 °C for 6 h as percent of reference (% of [^177Lu]Lu-DOTA-PP-F11N). * data taken from Holzleitner et al..
Cell Culture. CCK-2R-expressing rat pancreatic cancer cells AR42J (CLS GmbH, Eppelheim, Germany) were cultivated in monolayers in CELLSTAR® cell culture flasks acquired from Greiner Bio-One GmbH (Frickenhausen, Germany) at 37°C in a humidified atmosphere (5% CO2) using a HERAcell 150i-Incubator (Thermo Fisher Scientific Inc., Waltham, United States). The nutrient medium RPMI 1640 medium, supplemented with 5 mM L-Gln 5 mL non-essential amino acids (100×) and 10% FCS, was used. Furthermore, a Dulbecco’s PBS solution with 0.1% EDTA (v/v) was applied to detach the cells for cell passaging. The detached cells were counted using a Neubauer hemocytometer (Paul Marienfeld, Lauda-Königshofen, Germany). In addition, all operations under sterile conditions were accomplished using a MSC-Advantage safety workbench (Thermo Fisher Scientific Inc., Waltham, United States). […]
Internalization Studies. For the determination of the internalization kinetics of the various peptides, AR42J cells (3.0 × 10^5 cells/well) were seeded into polylysine-coated 24-well plates, adding 1 mL of nutrient medium. Afterwards, the cells were incubated for 24 ± 2 h at 37°C in a humidified atmosphere […]
On the day of the experiment, the medium was removed, and each well was washed with nutrient medium (300 μL). Afterwards 200 μL of nutrient medium, 25 μL of the 177Lu-labeled peptide (0.3 pmol, n = 6) and either 25 μL of nutrient medium for internalization studies ( n = 3) or 25 μL of [natLu]Lu-DOTA-PP-F11N (10 μmol) for competition studies ( n = 3) were added. Thereafter, the assay was incubated for various time points (1, 2, 4 and 6 h) at 37°C in a humidified atmosphere (5% CO2). After incubation, the cells were put on ice for at least 1 min to stop internalization kinetics and the supernatant was collected. Then, the cells were washed with an ice-cold nutrient medium (300 μL) and both fractions were unified. In order to displace the peptides from the cell membrane, 300 μL of an ice-cold glycine buffer (1 M, pH = 2.2) were added and the cells were incubated on ice for 15 min. Afterwards, the supernatant was collected, and the cells were washed with an ice-cold glycine buffer (300 μL, 1 M, pH = 2.2) while both fractions were unified. After lysis of the cells with NaOH (300 μL, 1 N) for 15 min, the respective wells were washed with NaOH (300 μL, 1 N) and both fractions were unified. The radioactivity of the supernatant, the acid wash and the lysed fractions were quantified using a γ-counter.
Lipophilicity Studies. Lipophilicity (depicted as octanol-phosphate-buffered saline solution (PBS, pH = 7.4) distribution coefficient, logD7.4) was determined by dissolving the 177Lu-labelled peptide (approx. 1 MBq) in a mixture (1/1, v/v) of n-octanol and PBS. The suspension was vortexed in a reaction vial (1.5 mL) for 3 min at room temperature and the vial was centrifuged at 9000 rpm for 5 min (Biofuge 15, Heraus Sepatech GmbH, Osterode, Germany). Amounts of 200 μL aliquots of both layers were measured separately in a γ-counter (Perkin Elmer, Waltham, MA, USA). The experiment was repeated […]
Stability Studies in Human Serum. The 177Lu- as well as 67Ga-labeled CCK-2R ligands (1 nmol, approx. 5 MBq) were incubated for 24 h in human serum (200 μL) at 37 °C. After incubation, ice-cold EtOH (125 μL) and MeCN (375 μL) were added and the suspension was centrifuged for 5 min at […]
5000 rpm. […]

Regarding `CCCC[C@H](NC(=O)[C@H](Cc1c[nH]c2ccccc12)NC(=O)CNC(=O)[C@H](Cc1ccc(O)cc1)NC(=O)[C@H](C)NC(=O)CC[C@@H](NC(=O)CC[C@@H](NC(=O)CC[C@@H](NC(=O)CC[C@@H](NC(=O)CC[C@@H](NC(=O)CC[C@@H](NC(=O)[C@@H](CNC(=O)c1ccc([Si](F)(C(C)(C)C)C(C)(C)C)cc1)NC(=O)CN1CCN(CC(=O)O)CCN(CC(=O)O)CCN(CC(=O)O)CC1)C(=O)O)C(=O)O)C(=O)O)C(=O)O)C(=O)O)C(=O)O)C(=O)N[C@@H](CC(=O)O)C(=O)N[C@@H](Cc1ccccc1)C(N)=O` [[^177Lu]Lu-DOTA-rhCCK-16, metal not drawn], the “Internalization Values (%F11N) 6 h” value came out at 215 ± 7 %F11N, the “Internalization Values (%) 1 h” value is 19.5 ± 2.3%, the “Internalization Values (%) 2 h” value was determined as 33.1 ± 1.7% and the “Internalization Values (%) 4 h” value came out at 43.9 ± 0.7%. The “Internalization Values (%) 6 h” value worked out at 51.1 ± 1.7%.
`CCCC[C@H](NC(=O)[C@H](Cc1c[nH]c2ccccc12)NC(=O)CNC(=O)[C@H](Cc1ccc(O)cc1)NC(=O)[C@H](C)NC(=O)CC[C@@H](NC(=O)CC[C@@H](NC(=O)CC[C@@H](NC(=O)CC[C@@H](NC(=O)CC[C@@H](NC(=O)CC[C@@H](NC(=O)CC[C@@H](NC(=O)CC[C@@H](NC(=O)[C@@H](CNC(=O)c1ccc([Si](F)(C(C)(C)C)C(C)(C)C)cc1)NC(=O)CN1CCN(CC(=O)O)CCN(CC(=O)O)CCN(CC(=O)O)CC1)C(=O)O)C(=O)O)C(=O)O)C(=O)O)C(=O)O)C(=O)O)C(=O)O)C(=O)O)C(=O)N[C@@H](CC(=O)O)C(=O)N[C@@H](Cc1ccccc1)C(N)=O` [[^19F]F-[^177Lu]Lu-DOTA-rhCCK-18] [metal not drawn]: the “Internalization Values (%F11N) 6 h” value is 244 ± 7 %F11N, the “Internalization Values (%) 1 h” value was determined as 15.4 ± 1.4%, the “Internalization Values (%) 2 h” value is on record as 24.1 ± 1.6% and the “Internalization Values (%) 4 h” value was determined as 41.6 ± 2.6%. Moreover, the “Internalization Values (%) 6 h” value stood at 54.8 ± 1.5%.
